Results: article PMC9962600, “Structure-Function Studies of Sponge-Derived Compounds on the Cardiac CaV3.1 Channel” (International Journal of Molecular Sciences, 2023)
“And” between values parts separate entries of the source, which are not always exact repeats. Identical values can stand only once.

Assays:
rat CaV3.1 channel [1] = target: T1, rat CaV3.1 channel (Rattus norvegicus, UniProt O54898); experiment: Two-electrode voltage clamp on Xenopus oocytes expressing CaV3.1; type: cell-based; conditions: for inhibition at 10 µM / Shift in the voltage dependency (activation/inactivation) of CaV3.1: 10 μM compound; for inhibition at 10 µM: 10 mM Ba2+, means ± SEM (n ≥ 3), read-out: Inhibition of CaV3.1 currents; for IC50: concentration-response 0.1-100 μM, means ± SEM; for Hill coefficient on CaV3.1: concentration-response fit; for Reversibility of effect on CaV3.1 on wash-out: wash-in and wash-out
Protocol: In previous work, a library of 119 simplified analogs was synthesized with the aim of targeting KV10.1 [18, 23, 24, 25]. Due to the interesting activity of purpurealidin I (1), we decided to repurpose this existing library to investigate the structure–activity relationship with respect to the CaV3.1 channels. All compounds were first dissolved in DMSO and then diluted in a 10 mM Ba^2+ solution. Compounds were tested at a final concentration of 10 μM.
(§1) Rat CaV3.1, human CaV3.2, rat CaV3.3, human NaV1.5, rat KV1.4, rat KV4.2, and human KV11.1 were expressed in X. laevis oocytes by linearizing the plasmids and subsequent in vitro transcription using a commercial T7 mMESSAGE mMACHINE transcription kit (Ambion, Carlsbad, CA, USA). Defolliculated Xenopus oocytes were injected with 50 nL of cRNA at a concentration of 1 ng/nL by using a microinjector (Drummond Scientific Company, Broomall, PA, USA). The oocytes were incubated in a solution containing (in mM): NaCl, 96; KCl, 2; CaCl2, 1.8; MgCl2, 2; and HEPES, 5 (pH 7.5). This solution was supplemented with 50 mg/L gentamicin sulfate and […] theophylline.
(§2) Two-electrode voltage clamp recordings were performed at room temperature (18–22 °C) by using a GeneClamp 500 amplifier (Molecular Devices, San Jose, CA, USA) controlled by a pClamp data acquisition system (Axon Instruments, Union City, CA, USA). Whole-cell currents from oocytes were recorded 5–10 days after mRNA injection. The bath solution composition was the following (in mM): BaCl2, 10; NaOH, 90; KOH, 1; EDTA, 0.1; and HEPES, 5 (pH 7.5). Voltage and current electrodes were filled with 3 M KCl. Resistances of both electrodes were kept between 0.8 and 1.5 MΩ. The elicited CaV3.1, CaV3.2, and CaV3.3 currents were filtered at 2 kHz and sampled at 4 kHz using a four-pole low-pass Bessel filter. Leak subtraction was performed by using a -P/4 protocol. Oocytes were placed in a measuring chamber filled with 200 μL ND96. The compounds were added directly to the measuring chamber under continuous application of the described voltage protocol. The percentage channel modulation was calculated when steady-state conditions were reached.
(§3) For the electrophysiological analysis of peptides, a number of protocols were applied from a holding potential of −90 mV. Currents for CaV3.1 and CaV3.2, which were carried by Ba^2+, were evoked by 300 ms depolarizing pulses to −25 mV or Vmax (the voltage corresponding to maximal Ba^2+ current in control conditions). Currents for CaV3.3, which were carried by Ba^2+, were evoked by 1 s depolarizing pulses to −25 mV or Vmax. The current–voltage relationships were determined by 600 ms step depolarizations between −90 and +60 mV, using 10 mV increments. The values of IPBa were normalized to the maximal Ba^2+ current amplitude and plotted as a function of voltage. To investigate the effect of the peptide toxins on the activation and steady-state inactivation, a standard 2-step protocol was used. In this protocol, 600 ms conditioning 10 mV step prepulses, ranging from −90 to +60 mV, were followed by a 400 ms test pulse to −25 mV. Data were normalized to the maximal Ba^2+ current amplitude, plotted against prepulse potential, and fitted by using the Boltzmann function: ICa/Imax = {(1 − C)/(1 + exp[(V − Vh)/k)]} + C, where Imax is the maximal IBa, Vh is the voltage corresponding to half-maximal inactivation, V is the test voltage, k is the slope factor, and C is a constant representing a non-inactivating persistent fraction (close to 0 in control). The concentration–response relationship was determined by fitting the data with the Hill equation: y = 100/{1 + [IC50/(toxin)]^h}, where y is the amplitude of the toxin-induced effect, IC50 is the toxin concentration at half-maximal efficacy, toxin is the toxin concentration, and h is the Hill coefficient.

human CaV3.2 = human CaV3.2 (Homo sapiens, UniProt O95180); experiment: Two-electrode voltage clamp on Xenopus oocytes expressing CaV3.2; type: cell-based; conditions: for Shift in the voltage dependency (activation/inactivation) of CaV3.2: 10 μM compound; for Hill coefficient on CaV3.2: concentration-response fit; for IC50: concentration-response, means ± SEM; for Reversibility of effect on CaV3.2 on wash-out: wash-in and wash-out
Protocol: as §1, §2, §3

rat CaV3.3 = rat CaV3.3 (Rattus norvegicus, UniProt Q9Z0Y8); experiment: Two-electrode voltage clamp on Xenopus oocytes expressing CaV3.3; type: cell-based; conditions: for Shift in the voltage dependency (activation/inactivation) of CaV3.3: 10 μM compound; for Hill coefficient on CaV3.3: concentration-response fit; for IC50: concentration-response, means ± SEM; for Reversibility of effect on CaV3.3 on wash-out: wash-in and wash-out
Protocol: as §1, §2, §3

KV11.1 (hERG) = KV11.1 (hERG) (Homo sapiens, UniProt Q12809); experiment: Selectivity screening, KV11.1 (hERG) in Xenopus oocytes; type: cell-based; conditions: human, Xenopus laevis oocytes expressing human KV11.1 (hERG), pH 7.5; 10 μM; means ± SEM (n ≥ 3); read-out: Percentage of inhibition of KV11.1
Protocol: (§4) As these purpurealidin analogs represent a new class of potent CaV3.1 inhibitors, they could potentially be used as pharmacological tools to investigate the role of CaV3 channels in various disease models. Therefore, compounds 74, 76, 79, and 99 were further evaluated at a concentration of 10 μM for their selectivity against cardiac voltage-gated potassium and sodium channels. […] Nevertheless, the affinity for the KV11.1 channel is an important issue for all four compounds (Table 2).
as §1
(§5) The selectivity screening was conducted with the following protocols: the elicited KV1.4, KV4.2, and KV11.1 currents were filtered at 0.5 kHz and sampled at 2 kHz; NaV1.5 currents were filtered at 2 kHz and sampled at 20 kHz using a four-pole low-pass Bessel filter. Leak subtraction was performed using a -P/4 protocol. The oocytes were measured in a bath solution composition of ND96 (in mM): NaCl, 96; KCl, 2; CaCl2, 1.8; MgCl2, 2; and HEPES, 5 (pH 7.5). For the electrophysiological analysis of the compounds, a number of protocols were applied from a holding potential of −90 mV. Currents for KV1.4 and KV4.2 were evoked by 0.5 s depolarizing pulses to 0 mV, followed by 0.5 s repolarizing pulses to −50 mV. Currents for KV11.1 were evoked by 2.5 s depolarizing prepulses to +40 mV, followed by hyperpolarizing pulses to −120 mV for 2.5 s. Currents for NaV1.5 were evoked by 100 ms depolarizing pulses to 0 mV.

human KV11.1 = human KV11.1 (Homo sapiens, UniProt Q12809); experiment: as above; type: cell-based; conditions: comparison of own CaV3.1 and KV11.1 data
Protocol: as §4, §1, §5

rat CaV3.1 channel [2] = target: T1, rat CaV3.1 channel; experiment: Two-electrode voltage clamp on Xenopus oocytes expressing CaV3.1; type: cell-based
hERG channels = conditions: reference not given; cited from earlier work

KV11.1 (hERG), sequence (Q12809 whole entry): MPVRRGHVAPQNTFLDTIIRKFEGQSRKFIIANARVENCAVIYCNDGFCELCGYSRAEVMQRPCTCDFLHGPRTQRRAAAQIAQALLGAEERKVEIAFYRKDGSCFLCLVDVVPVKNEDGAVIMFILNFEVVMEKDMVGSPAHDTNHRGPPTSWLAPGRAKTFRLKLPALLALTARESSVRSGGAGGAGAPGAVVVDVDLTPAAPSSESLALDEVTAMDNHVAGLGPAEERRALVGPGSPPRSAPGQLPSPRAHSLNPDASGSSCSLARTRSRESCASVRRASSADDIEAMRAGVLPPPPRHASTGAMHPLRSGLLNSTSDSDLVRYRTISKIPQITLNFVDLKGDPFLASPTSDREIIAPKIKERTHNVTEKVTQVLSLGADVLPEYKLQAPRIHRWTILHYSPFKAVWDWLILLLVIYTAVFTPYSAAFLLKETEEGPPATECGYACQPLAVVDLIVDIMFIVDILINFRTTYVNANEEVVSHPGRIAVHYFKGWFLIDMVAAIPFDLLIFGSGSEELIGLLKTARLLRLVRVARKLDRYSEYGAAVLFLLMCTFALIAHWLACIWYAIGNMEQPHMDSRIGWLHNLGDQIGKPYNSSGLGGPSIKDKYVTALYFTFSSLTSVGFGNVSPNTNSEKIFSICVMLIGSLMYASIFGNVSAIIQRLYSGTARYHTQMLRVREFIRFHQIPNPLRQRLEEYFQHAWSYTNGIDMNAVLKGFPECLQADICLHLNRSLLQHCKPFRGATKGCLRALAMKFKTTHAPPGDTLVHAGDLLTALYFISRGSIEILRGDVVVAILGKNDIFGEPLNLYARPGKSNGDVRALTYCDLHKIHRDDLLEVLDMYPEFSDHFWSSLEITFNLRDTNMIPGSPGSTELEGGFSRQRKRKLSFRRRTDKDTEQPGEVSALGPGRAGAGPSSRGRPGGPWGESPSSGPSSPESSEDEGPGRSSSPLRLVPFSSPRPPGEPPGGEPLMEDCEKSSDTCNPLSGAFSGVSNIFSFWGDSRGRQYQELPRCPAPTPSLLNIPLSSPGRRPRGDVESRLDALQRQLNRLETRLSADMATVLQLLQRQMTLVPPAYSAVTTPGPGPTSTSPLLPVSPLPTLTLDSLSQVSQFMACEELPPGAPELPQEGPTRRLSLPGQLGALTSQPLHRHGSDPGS
human CaV3.2, sequence (O95180 whole entry): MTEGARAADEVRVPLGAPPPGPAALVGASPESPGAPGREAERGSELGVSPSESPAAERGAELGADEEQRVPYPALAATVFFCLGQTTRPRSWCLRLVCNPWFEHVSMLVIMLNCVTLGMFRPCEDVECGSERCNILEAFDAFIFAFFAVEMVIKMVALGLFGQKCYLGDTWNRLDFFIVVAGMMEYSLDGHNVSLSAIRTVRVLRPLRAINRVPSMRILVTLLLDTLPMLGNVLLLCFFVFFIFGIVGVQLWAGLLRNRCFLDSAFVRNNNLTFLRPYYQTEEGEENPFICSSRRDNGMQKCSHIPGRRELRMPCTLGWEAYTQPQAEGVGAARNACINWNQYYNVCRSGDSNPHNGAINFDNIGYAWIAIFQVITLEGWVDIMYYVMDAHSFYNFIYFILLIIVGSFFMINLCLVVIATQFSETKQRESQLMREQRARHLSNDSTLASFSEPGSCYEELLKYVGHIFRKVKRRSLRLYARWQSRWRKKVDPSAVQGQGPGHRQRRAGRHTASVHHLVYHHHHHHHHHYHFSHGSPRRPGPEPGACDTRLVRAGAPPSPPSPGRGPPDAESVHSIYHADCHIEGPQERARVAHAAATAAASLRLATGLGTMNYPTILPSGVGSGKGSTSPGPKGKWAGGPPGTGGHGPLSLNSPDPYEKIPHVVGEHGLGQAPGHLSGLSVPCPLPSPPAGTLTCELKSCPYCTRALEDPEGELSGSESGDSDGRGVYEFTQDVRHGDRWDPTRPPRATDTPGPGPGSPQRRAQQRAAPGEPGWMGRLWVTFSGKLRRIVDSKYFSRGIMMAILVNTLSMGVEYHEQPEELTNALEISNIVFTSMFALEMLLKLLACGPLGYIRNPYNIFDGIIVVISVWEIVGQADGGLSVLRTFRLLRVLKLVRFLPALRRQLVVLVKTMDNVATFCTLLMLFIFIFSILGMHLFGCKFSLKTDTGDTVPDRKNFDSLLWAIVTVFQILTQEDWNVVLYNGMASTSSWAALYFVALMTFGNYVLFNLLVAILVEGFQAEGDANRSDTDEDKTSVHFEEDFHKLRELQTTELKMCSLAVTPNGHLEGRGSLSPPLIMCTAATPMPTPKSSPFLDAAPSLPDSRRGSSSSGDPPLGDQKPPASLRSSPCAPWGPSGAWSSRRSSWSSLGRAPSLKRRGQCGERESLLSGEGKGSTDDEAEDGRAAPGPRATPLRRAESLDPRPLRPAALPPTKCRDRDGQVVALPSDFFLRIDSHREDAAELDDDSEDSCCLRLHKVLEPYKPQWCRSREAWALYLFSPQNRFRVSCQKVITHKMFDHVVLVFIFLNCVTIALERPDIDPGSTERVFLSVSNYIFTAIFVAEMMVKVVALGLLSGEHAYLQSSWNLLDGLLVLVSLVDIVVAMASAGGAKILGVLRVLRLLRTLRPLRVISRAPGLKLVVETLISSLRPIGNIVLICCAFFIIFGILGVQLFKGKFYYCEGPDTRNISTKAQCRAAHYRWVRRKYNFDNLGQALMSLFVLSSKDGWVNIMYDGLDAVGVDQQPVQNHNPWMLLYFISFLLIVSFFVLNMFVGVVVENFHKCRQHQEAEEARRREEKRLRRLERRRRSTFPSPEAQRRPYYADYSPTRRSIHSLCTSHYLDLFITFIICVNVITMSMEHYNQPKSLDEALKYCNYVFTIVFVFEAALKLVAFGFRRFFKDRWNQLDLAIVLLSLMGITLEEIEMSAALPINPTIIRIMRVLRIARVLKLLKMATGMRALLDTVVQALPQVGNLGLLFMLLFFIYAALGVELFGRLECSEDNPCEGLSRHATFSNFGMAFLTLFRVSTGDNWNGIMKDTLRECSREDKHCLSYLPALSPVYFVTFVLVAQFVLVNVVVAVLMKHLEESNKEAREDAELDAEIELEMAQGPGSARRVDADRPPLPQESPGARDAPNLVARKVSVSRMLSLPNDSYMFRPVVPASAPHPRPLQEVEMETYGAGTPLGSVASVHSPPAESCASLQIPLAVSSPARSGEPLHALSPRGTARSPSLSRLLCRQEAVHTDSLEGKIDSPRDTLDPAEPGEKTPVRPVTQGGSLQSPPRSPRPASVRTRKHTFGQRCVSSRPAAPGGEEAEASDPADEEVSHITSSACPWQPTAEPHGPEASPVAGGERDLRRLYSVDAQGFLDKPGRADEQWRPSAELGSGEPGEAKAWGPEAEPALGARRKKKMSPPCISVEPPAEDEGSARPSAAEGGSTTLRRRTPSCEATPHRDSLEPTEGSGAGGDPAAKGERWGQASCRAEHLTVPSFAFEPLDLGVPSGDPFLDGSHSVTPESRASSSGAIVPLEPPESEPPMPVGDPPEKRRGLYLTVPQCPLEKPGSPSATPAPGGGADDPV
human KV11.1, sequence (Q12809 whole entry): as the sequence (Q12809 whole entry) above

SMILES | inhibition at 10 µM (rat CaV3.1 channel [1]) | Shift in the voltage dependency (activation/inactivation) of CaV3.1 (rat CaV3.1 channel [1]) | IC50 (rat CaV3.1 channel [1]) | Hill coefficient on CaV3.1 (rat CaV3.1 channel [1]) | Reversibility of effect on CaV3.1 on wash-out (rat CaV3.1 channel [1]) | Shift in the voltage dependency (activation/inactivation) of CaV3.2 (human CaV3.2) | Hill coefficient on CaV3.2 (human CaV3.2) | IC50 (human CaV3.2) | Reversibility of effect on CaV3.2 on wash-out (human CaV3.2) | Shift in the voltage dependency (activation/inactivation) of CaV3.3 (rat CaV3.3) | Hill coefficient on CaV3.3 (rat CaV3.3) | IC50 (rat CaV3.3) | Reversibility of effect on CaV3.3 on wash-out (rat CaV3.3) | inhibition at 10 µM (KV11.1 (hERG)) | also measured
CNCCCOc1c(Br)cc(CCNC(=O)/C(Cc2cc(Br)c(OC)c(Br)c2)=N/O)cc1Br [Compound 1, purpurealidin I] | 70.5 ± 0.6% |  |  |  |  |  |  |  |  |  |  |  |  |  | 
O=C(NCc1cccnc1)C1=NOC2(C=C(Cl)C(=O)C(Cl)=C2)C1 [Compound 72] | 3.1 ± 1.1% |  |  |  |  |  |  |  |  |  |  |  |  |  | 
CN(C)CCCOc1ccc(Nc2ccc(C(F)(F)F)cc2[N+](=O)[O-])cc1 [Compound 74] | 43.4 ± 2.4% | No significant shift | 2.6 ± 0.6 µM | 0.8 ± 0.1 | reversible | No significant shift | 0.8 ± 0.0 | 3 ± 0.2 µM | reversible | No significant shift | 0.5 ± 0.1 | 13.9 ± 5.1 µM | reversible | 45.8 ± 2.9% | 
CN(C)CC(O)COc1ccc(Nc2ccc(C(F)(F)F)cc2[N+](=O)[O-])cc1 (stereo not shown) [Compound 76] | 43 ± 4.5% | No significant shift | 3.7 ± 0.6 µM | 0.9 ± 0.1 | reversible | No significant shift | 0.8 ± 0.1 | 8.4 ± 3.6 µM | reversible | No significant shift | 0.7 ± 0.1 | 18.2 ± 3.1 µM | reversible | 64.2 ± 3.2% | 
CN(C)CC(O)COc1ccc(Nc2ccc(C(F)(F)F)cc2)cc1 (stereo not shown) [Compound 79] | 60.4 ± 5.7% | No significant shift | 5.9 ± 1.9 µM | 0.8 ± 0.1 | reversible | No significant shift | 1.0 ± 0.0 | 7 ± 0.1 µM | reversible | No significant shift | 0.7 ± 0.1 | 2.7 ± 0.3 µM | reversible | 67.6 ± 3.9% | 
CN(C)CC(O)COc1ccc(Oc2ccc(C(F)(F)F)cc2[N+](=O)[O-])cc1 (stereo not shown) [Compound 99] | 90.7 ± 5.4% |  | ~3 µM and 4.1 µM | 1.6 ± 0.1 |  |  | 1.4 ± 0.3 | 2.3 ± 0.5 µM |  |  |  |  |  | 69.1 ± 1.9% | Potency across CaV3.1 and hERG channels (human KV11.1): equipotent; Shift in the voltage dependency (activation/inactivation) of CaV3.1 (rat CaV3.1 channel [2]; 5 μM compound): no significant shift; inhibition at 5 µM (rat CaV3.1 channel [2]; 5 μM compound, read-out: Inhibition of CaV3.1 currents): 57 ± 5.8%; Reversibility of effect on CaV3.1 on wash-out (rat CaV3.1 channel [2]; 5 μM compound, wash-out with compound-free bath solution): not completely reversible; Midpoint of activation V1/2 (rat CaV3.1 channel [2]; in the presence of 5 μM compound, control −39.9 ± 0.1 mV): −37.4 ± 0.1 mV; Inactivation curve V1/2 (rat CaV3.1 channel [2]; in the presence of 5 μM compound, control −56.0 ± 0.1 mV): −53.0 ± 0.2 mV
CC(C)(C)NC(=O)CN1CCC(CNC(=O)c2cc(F)cc(Cl)c2)CC1 [Compound Z944] |  |  |  |  |  |  |  |  |  |  |  |  |  |  | IC50 (hERG channels): 7.8 µM; Potency against CaV3.1 compared to hERG channels (hERG channels): 150 fold
